Columns and labels:
[1] = tested on: Male ICR mouse; assay: Hyperactivity (quantity of motion) induced by MK-801 in mice; type: in vivo; conditions: MK-801 0.3 mg/kg, P<0.05
Protocol: (§1) The improvement effect of compound of formula (I) on schizophrenia was evaluated by measuring the quantity of motion inhibited by administration of the compound in a model in which the symptoms were induced by methamphetamine (hereinafter abbreviated as MAP) and MK-801.
(§2) The animal was taken out of a breeding cage, orally administered with a test compound, and then placed into a cage for breeding. After 30 minutes, the animal was put into a cage for measurement, and the quantity of motion with the test compound alone was measured. Further, after 30 to 90 minutes, the animal was taken out, and subcutaneously or intraperitoneally administered with a drug for increasing the quantity of motion (MAP; 1.5 mg/kg or MK-801; 0.3 mg/kg, dissolved in physiological saline, respectively). Then, the quantity of motion for a certain period of time (60 minutes) was measured using a device for measuring the quantity of motion (CompACT AMS manufactured by Muromachi Kikai Co., Ltd.) by means of an infrared sensor.
(§3) For a normal mouse (a mouse administered with physiological saline) and a mouse administered with a drug for increasing the quantity of motion, a Student's T test was performed for evaluation for each interval. For a group administered with the test compound, an assay was performed using a solvent (vehicle) group and a Dunnett's T test. For the evaluation, if there was a significant difference (P<0.05), it was considered that there is an effect.

[2] = tested on: Male ddY mouse; assay: Spontaneous alternation behavior (Y-maze) induced by Scoporamine in mice; type: in vivo; conditions: Scoporamine 0.5 mg/kg i.p.
Protocol: The improvement effect of compound of formula (I) on cognitive impairment of dementia and schizophrenia was evaluated by a known test method as a model with short-term learning disorder.
After 10 to 30 minutes from oral administration of the test compound, 0.5 mg/kg of Scoporamine or 0.15 mg/kg of MK-801 (in the case of a normal group, physiological saline was administered) was intraperitoneally administered. After 20 minutes, the test was conducted. In addition, solvent (vehicle) was orally administered to the normal group (to which physiological saline was administered) and to the control group (to which 0.5 mg/kg of Scoporamine or 0.15 mg/kg of MK-801 was administered), when the test compound was administered.
A mouse was placed at the end of one arm of a Y-maze having arms with the same length in three directions, and then allowed to explore freely and the number of arm entries was counted for 8 minutes. Further, spontaneous alternation behavior was defined as entries into all three different arms on consecutive occasions, and the ratio of the number of instances of this behavior to the total number of the entries was calculated as an alternation rate by the following formula: Alternation rate(%)=Number of spontaneous alternation behaviors/(Total number of entries−2)×100.
If a significant difference between the normal group and the control group (Student's T test) was approved in the alternation rate (%), it was considered to have learning disorder by the administration of Scoporamine or MK-801. By carrying out a Dunnett's test on the group administered with the test compound with respect to the control group, the presence or absence of effect of the test compound on learning disorder was evaluated. For each assay, it was considered that there was a tendency when p<0.10 and there was a significant difference when p<0.05.

[3] = molecular target: human 5-HT5A receptor (Homo sapiens (Human), UniProt P47898); assay: Test on a human 5-HT5A receptor binding inhibition ([3H]5-CT); conditions: membrane from HEK293 cells expressing human 5-HT5A receptor, Ki calculated from IC50
Sequence of human 5-HT5A receptor (P47898 whole entry): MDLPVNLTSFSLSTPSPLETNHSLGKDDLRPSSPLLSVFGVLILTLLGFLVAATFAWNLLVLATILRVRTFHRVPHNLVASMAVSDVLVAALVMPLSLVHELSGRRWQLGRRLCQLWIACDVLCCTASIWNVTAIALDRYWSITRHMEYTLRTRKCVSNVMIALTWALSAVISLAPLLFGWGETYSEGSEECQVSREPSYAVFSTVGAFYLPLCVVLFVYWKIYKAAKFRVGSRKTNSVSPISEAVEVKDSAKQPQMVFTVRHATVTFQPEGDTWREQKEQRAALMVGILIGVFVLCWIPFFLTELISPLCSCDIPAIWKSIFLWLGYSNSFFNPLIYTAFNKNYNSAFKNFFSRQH
Protocol: The ORF (open reading frame; protein coding region) of a human 5-HT5A receptor (Genbank AF498985) was cloned from a human hippocampus cDNA library, and then inserted into a pCR2.1 vector (Invitrogen), and Escherichia coli containing the plasmid was cultured in a large amount. Next, the full-length cDNA sequence of the human 5-HT5A receptor was analyzed, and recombined into a pCDNA3.1 vector (Invitrogen) as an expression vector and cultured in a large amount. HEK293 established cells (ATCC) derived from the human fetal kidney were seeded, the expression plasmid (1 μg) obtained above were added thereto with LIPOFECTAMINE 2000 (Invitrogen; 2 μl), the gene was transfected into HEK293 cells, and the expression cells were screened with a drug-resistant marker, Geneticin (G418 sulfate 500 μg/ml; Kanto Chemical Co., Inc.). Thus prepared recombinant cells which expressed the gene were cultured in a medium containing D-MEM (Dulbecco's modified eagle medium, Sigma), 10% FCS (Fetal calf serum: fetal bovine serum), 1% Pc./Sm (Penicillin/Streptomycin, Invitrogen), and 500 μg/ml G418 for 3 days. These experimental operations followed a manual for gene operation experiment and an instruction appended in a reagent, and the like, such as a known method (Sambrook, J. et al, Molecular Cloning-A Laboratory Manual”, Cold Spring Harabor laboratory, NY, 1989).
HEK293 cells for forced expressions of a human 5-HT5A receptor were cultured in a F500 plate, and scraped with a scraper. After centrifugation, the precipitate was collected, and an incubation buffer (50 mM Tris (HCl) (pH 7.4), 10 mM MgSO4, and 0.5 mM EDTA (ethylenediamine tetraacetic acid)) was added thereto. After homogenization, it was further centrifuged, and the incubation buffer was added to the precipitate, followed by thoroughly suspending. The operation was repeated, and protein concentration was measured, thereby completing preparation of the membrane.
A solution of the compound to be tested and 100 μM 5-CT (5-carboxamidetriptamine) in DMSO was added to a 96-well plate at 2 μl/well, suspended in an incubation buffer, and a membrane from HEK293 cells for forced expressions of a human 5-HT5A receptor prepared at 200 μg/ml was added at 100 μl/well. After incubation at room temperature for 15 minutes, a [^3H]5-CT solution (2 nM [^3H]5-CT, incubation buffer) was added thereto at 100 μl/well.
Separately, 100 μl of the solution was distributed into a liquid scintillation vial, and 2 ml of Aquasol II (registered trademark) was added thereto, followed by stirring. Then, radioactivity was measured by a liquid scintillation counter. It was incubated at 37° C. for 60 minutes. The reaction mixture was sucked into 96-well GF/C filter plate that had been pre-treated with 0.2% polyethyleneimine, and washed six times with an ice-cooled, 50 mM Tris (pH 7.5) buffer. The GF/C filter plate was dried.
Microscint TMPS (registered trademark) was added thereto at 40 μl/well. Radioactivity remaining on the GF/C filter plate was measured by a top counter.
The [^3H]5-CT binding inhibiting activity by the compound to be tested in each experiment was determined as an IC50 value with a radioactivity upon addition of DMSO alone being 0% inhibition, and a radioactivity upon addition of 1 μM 5-CT being 100% inhibition. Separately, Ki values were calculated from the Kd value of the [^3H]5-CT determined from Scatchard analysis, by the following equation. Ki=IC50(1+Concentraion of ligand added/Kd(4.95 nM))

[4] = tested on: Male ICR mouse; assay: Hyperactivity (quantity of motion) induced by methamphetamine (MAP) in mice; type: in vivo; conditions: oral dose 0.1 mg/kg; MAP 1.5 mg/kg; P<0.05
Protocol: as §1, §2
as §3, with “For the evaluation, if there was a significant difference (P<0.05), it was considered that there is an effect.” left out

| Ki ([3]; [3H]5-CT binding) [nM] | Structure (SMILES) | also measured |
| --- | --- | --- |
| 1 to 10 | Cc1cnc(-c2ccccc2F)c2cc(C(=O)N=C(N)N)ccc12 [Example 192] | hyperactivity induced by MK-801 ([1]; oral dose 0.01 mg/kg): significantly inhibited; spontaneous alternation behavior induced by Scoporamine ([2]; oral dose 0.003 mg/kg): significantly inhibited; Ki ([3]; [3H]5-CT binding inhibition): 1.8 nM |
| 1 to 10 | Cc1ccccc1-c1ncc(Cl)c2ccc(C(=O)N=C(N)N)cc12 [Example 213] | – |
| 10 to 100 | NC(N)=NC(=O)c1ccc2c(F)cnc(-c3ccc(Cl)cc3)c2c1 [Example 191] | – |
| 1 to 10 | Cc1cccc(C)c1-c1ncc(Cl)c2ccc(C(=O)N=C(N)N)cc12 [Example 222] | – |
| 10 to 100 | NC(N)=NC(=O)c1ccc2c(F)cnc(-c3ccncc3F)c2c1 [Example 165] | – |
| 1 to 10 | NC(N)=NC(=O)c1ccc2c(F)cnc(-c3cccc(F)c3Cl)c2c1 [Example 200] | – |

The next lines start with the compound.

| Structure (SMILES) | Ki ([3]; [3H]5-CT binding) [nM] | also measured |
| --- | --- | --- |
| NC(N)=NC(=O)c1ccc2c(F)cnc(-c3c(F)cncc3F)c2c1 [Example 157] | 1 to 10 | hyperactivity induced by MK-801 ([1]; oral dose 0.03 mg/kg): significantly inhibited; spontaneous alternation behavior induced by Scoporamine ([2]; oral dose 0.001 mg/kg): significantly inhibited; Ki ([3]; [3H]5-CT binding inhibition): 5.3 nM |
| NC(N)=NC(=O)c1ccc2ncc(Cl)c(-c3ccc(F)cc3)c2c1 [Example 73] | 1 to 10 | hyperactivity induced by MK-801 ([1]; oral dose 0.1 mg/kg): significantly inhibited |
| NC(N)=NC(=O)c1ccc2c(F)cnc(-c3ccccc3F)c2c1 [Example 160] | – | hyperactivity induced by MK-801 ([1]; oral dose 0.01 mg/kg): significantly inhibited; spontaneous alternation behavior induced by Scoporamine ([2]; oral dose 0.001 mg/kg): significantly inhibited; Ki ([3]; [3H]5-CT binding inhibition): 3.3 nM |
| NC(N)=NC(=O)c1ccc2c(F)cnc(-c3c(F)cccc3F)c2c1 [Example 148] | – | hyperactivity induced by MK-801 ([1]; oral dose 0.03 mg/kg): significantly inhibited; hyperactivity induced by MAP [4]: significantly inhibited; spontaneous alternation behavior induced by Scoporamine ([2]; oral dose 0.01 mg/kg): significantly inhibited; Ki ([3]; [3H]5-CT binding inhibition): 1.4 nM |
| Cc1cc(-c2ccc(F)cc2Cl)c2cc(C(=O)N=C(N)N)cc(C)c2n1 [Example 91] | 1 to 10 | – |
| Cc1cnc2ccc(C(=O)N=C(N)N)cc2c1-c1cccc(F)c1Cl [Example 61] | 1 to 10 | – |
| Cc1cc(C(=O)N=C(N)N)cc2c(C3CC3)ccnc12 [Example 71] | 10 to 100 | – |
| NC(N)=NC(=O)c1ccc2nccc(-c3ccccc3)c2c1 [Example 4] | 10 to 100 | – |
| COc1cccc(F)c1-c1ncc(F)c2ccc(C(=O)N=C(N)N)cc12 [Example 159] | 1 to 10 | Ki ([3]; [3H]5-CT binding inhibition): 7.1 nM |
| NC(N)=NC(=O)c1cc(Cl)c2nccc(-c3c(F)cc(F)cc3F)c2c1 [Example 43] | 10 to 100 | – |
| COc1cccc(F)c1-c1c(C)c(C)nc2ccc(C(=O)N=C(N)N)cc12 [Example 129] | 10 to 100 | – |

— patent US8853242B2, “Nitrogenous-ring acylguanidine derivative” (Astellas Pharma Inc., priority 2009, dated 2014)
